Assay results from patent publication US11324767B2, “Drug combination treatments using bone-targeting therapeutics for bone and bone-related disease” (MBC Pharma, Inc., priority 2017, dated 2022).
pIC50: −log10 of the molar value. Like-named read-outs stand apart in the source and are kept apart here.

Legend:
143B-luc = assay: cell culture treatment of human OS cell line 143B-luc (IC50, Bliss analysis)
Protocol: This was determined in culture with a human OS cell line—143B-luc (143B cells were transfected to express luciferase (luc) for use in a mouse model system).

[1] = tolerability in mice (weight loss, nephrotoxicity)
Protocol: (§1) 143B-luc cells were then implanted into nude mice via intratibial injection, creating an orthotopic model for OS. The presence and growth of tumors was confirmed with in vivo imaging (Xenogen). Mice (N=8/treatment group) were then treated with 60 mg/kg GEM twice weekly and 15 mg/kg DTX once weekly, alone or in combination (15 mg/kg DTX with 20, 40 or 60 mg/kg GEM) and monitored for weight loss and tumor growth.
(§2) Tolerability for IB and GEM-IB was tested in a mouse model system. […] To ensure the health of mice throughout a longer study, doses were reduced to 6 mg/kg IB and equimolar doses of GEM-IB (14 mg/kg) and GEM (6 mg/kg) with 15 mg/kg DTX. Mice were implanted with the 143B-luc cells via intratibial injection and treatment started 4 days after implantation.
(§3) Mice were then treated with GEM-IB, GEM-IB with DTX, or the individual agents of GEM, DTX, or IB.

[2] = mouse, in vivo
Protocol: as §1, §2, §3

[3] = tested on: prostate cancer induced bone disease; assay: in vivo model of prostate cancer induced bone disease
Protocol: (§4) MBC-11 was tested in recently completed phase I clinical trials in patients with CIBD.

143B-luc cells = assay: orthotopic OS model: Kaplan-Meier survival until euthanasia due to large tumor size; conditions: euthanized when largest tumor-laden leg diameter reached 10 mm above normal leg diameter (FIG. 4)
Source text: Mice were euthanized when largest tumor-laden leg diameter reached 10 mm above normal leg diameter. […] Mice euthanized for weight loss are not indicated as deaths in this chart, and are indicated as tick marks on day euthanized.

[4] = in vivo MicroCT of bone in OS mouse model; conditions: in vivo MicroCT 22 days after starting treatment; 6 mg/kg IB or 14 mg/kg GEM-IB
Protocol: To ensure the health of mice throughout a longer study, doses were reduced to 6 mg/kg IB and equimolar doses of GEM-IB (14 mg/kg) and GEM (6 mg/kg) with 15 mg/kg DTX. Mice were implanted with the 143B-luc cells via intratibial injection and treatment started 4 days after implantation.

[5] = MTD and tolerability of GEM-IB dosing regimens; format: in vivo
Source text: The MTD of the conjugate of Gemcitabine-to-Ibandronate is lower than that of MBC-1. Therefore, a conjugate of Gemcitabine-to-Ibandronate can be administered at or below 5/mg/kg/day via a 2-hour infusion for up to 5 consecutive days and Xofigo administered at or below its standard of care dosing regimen.

bone lesions = assay: phase I clinical trials of MBC-11 in patients with CIBD, bone lesions imaged by 18F-FDG-PET/CT; conditions: 15 patients, after MBC-11 therapy
Protocol: as §4

[6] = clinically established MTD of MBC-11; format: in vivo, Human; conditions: 2-hour infusion for up to 5 consecutive days
Protocol: The current clinically established MTD of MBC-11 indicates the method should be used where MBC-11 is administered at or below 5/mg/kg/day via a 2-hour infusion for up to 5 consecutive days and Xofigo is administered at or below the standard of care dosing regimen.

[7] = 60 mg/kg GEM twice weekly alone, 15 mg/kg DTX once weekly alone, or 15 mg/kg DTX with 20 or 40 mg/kg GEM, N=8/group

CC(=O)O[C@@]12CO[C@@H]1C[C@H](O)[C@@]1(C)C(=O)[C@H](O)C3=C(C)[C@@H](OC(=O)[C@H](O)[C@@H](NC(=O)OC(C)(C)C)c4ccccc4)C[C@@](O)([C@@H](OC(=O)c4ccccc4)[C@H]21)C3(C)C [DTX, docetaxel]
pIC50 (143B-luc; 143B-luc cells in culture, individual drug agent): 7.14 | reduction of IC50 of DTX (143B-luc; in the presence of 1 nM GEM versus DTX alone): 600 fold | pIC50 (143B-luc; read-out: IC50 of DTX in the presence of GEM, 143B-luc cells in culture, in the presence of 1 nM GEM): 9.92 | weight loss [1, 7]: did not exhibit any weight loss

Nc1ccn([C@@H]2O[C@H](CO)[C@@H](O)C2(F)F)c(=O)n1 [GEM, Gemcitabine]
pIC50 (143B-luc; Homo sapiens): 8.05 | weight loss [1, 7]: did not exhibit any weight loss

CCCCCN(C)CCC(O)(P(=O)(O)O)P(=O)(O)OP(=O)(O)OC[C@H]1O[C@@H](n2ccc(N)nc2=O)C(F)(F)[C@@H]1O (stereo partly shown) [GEM-IB]
nephrotoxicity [2]: possible nephrotoxicity | tolerability [2]: well tolerated | activity compared to GEM-etidronate (GEM-ET), MBC-11 and cytarabine-IB ([3]; in vivo): more active | metastases after treatment ([3]; in vivo): significantly reduced | survival ([3]; study not designed for a survival endpoint): improved survival trend | day after treatment initiation from which mice were sacrificed (143B-luc cells): 28 days | bone volume density [4]: high | trabecular number [4]: high | tolerability ([5]; Monday, Wednesday and Friday dosing for three weeks at twice the 6 mg/kg daily dose): well tolerated | MTD ([5]; dosing for five sequential days): 6 mg/kg/day | MTD compared with MBC-1 ([5]; in vivo): lower

CCCCCN(C)CCC(O)(P(=O)(O)O)P(=O)(O)O [IB, ibandronate]
bone volume density [4]: high | trabecular number [4]: high | weight loss ([1]; IB 12 mg/kg twice weekly): only minimal weight loss | nephrotoxicity ([1]; at higher levels): possible nephrotoxicity | tolerability ([1]; at lower doses): well tolerated

CC(O)(P(=O)(O)O)P(=O)(O)OP(=O)(O)OC[C@H]1O[C@@H](n2ccc(N)nc2=O)[C@@H](O)[C@@H]1O (stereo partly shown) [MBC-11]
bone lesions with a significant reduction (>25%) in glucose avidity (bone lesions; 206 bone lesions imaged (18F-FDG-PET/CT)): 111 lesions | bone lesions significantly reduced in activity (bone lesions; 206 bone lesions imaged): 53.8% | dose indicated by the clinically established MTD [6]: up to 5 /mg/kg/day
